Converted amounts (≈) assume the structure as drawn. Like-named read-outs stand apart in the source and are kept apart here.
Columns and labels:
HSV-1 = test: HSV antiviral (ELISA) assay in Vero cells; format: cell-based, herpes simplex virus type 1; conditions: read-out: IC50 (ug/ml) HSV
Protocol: HSV antiviral (ELISA) assay
Vero cells (ATCC #CCL-81) are plated on 96-well tissue culture plates at 3.5x10^4 cells per 100µl tissue culture DMEM (Dulbecco's modified Eagle media) supplemented with 2% fetal bovine serum (FBS) in each well. After overnight incubation @ 37°C (in 5% CO2) and 30 minutes prior to infection with HSV-1 (multiplicity of infection equal to 0.006), cells are either untreated, or treated with test compound (multiple concentrations) or reference standard drug control. After approximately 24 hours post-infection incubation @ 37°C (in 5% CO2), cells are fixed for ELISA assay. The primary antibody is murine anti-HSV glycoprotein D monoclonal primary antibody and the secondary antibody is goat anti-mouse IgG linked to β-galactosidase. Thus the extent of viral replication is determined by assessing β-galactosidase activity by quantifying the generation of the 4-methyl umbelliferone fluorescent cleavage product after addition of the methyl umbelliferyl-β-D-galactoside (Sigma #M1633) substrate on a microfluorimeter (365nm for excitation and 450nm for emission). Antiviral activity (IC50) of the test compound is determined by comparing the flourescence obtained in absence of compound to that obtained in the presence of compound.

VZV strain Ellen = test: VZV antiviral (ELISA) assay in human foreskin fibroblast cells; format: cell-based, varicella-zoster virus; conditions: for inhibition at 10 µg/mL: Human alphaherpesvirus 3, Fibroblast, read-out: % inhibition 10 ug/ml VZV; for IC50: read-out: IC50 (ug/ml) VZV
Protocol: VZV antiviral (ELISA) assay
For the generation of stock VZV to be used in the assay, VZV strain Ellen (ATCC #VR-1367) is used to infect human foreskin fibroblast (HFF) cells at low multiplicity (less than 0.1) and incubated overnight at 37°C in 5% CO2. After the overnight incubation, the mixture of uninfected and VZV-infected HFF infected cells are then harvested and added to each well of 96-well plates (3.5x10^4 cells in 100 µl DMEM supplemented with 2% FBS) which contain test compound or the reference standard drug control (in 100µl DMEM supplemented with 2% FBS per well). These cells are incubated for three days at 37°C in 5% CO2, then fixed for ELISA assay. The primary antibody is murine anti-VZV glycoprotein II monoclonal antibody (Applied Biosystems, Inc. #13-145-100) and the secondary antibody is goat anti-mouse IgG linked to β-galactosidase. Thus the extent of viral replication is determined by assessing β-galactosidase activity by quantifying the generation of the 4-methyl umbelliferone fluorescent cleavage product after addition of the methyl umbelliferyl-β-D-galactoside (Sigma #M1633) substrate on a microfluorimeter (365nm for excitation and 450nm for emission). Antiviral activity (IC50) of the test compound is determined by comparing the flourescence obtained in absence of compound to that obtained in the presence of compound.

[1] = tested on: HCMV recombinant mutant virus; test: microbe, parasite or virus in culture; format: cell-based, human cytomegalovirus; conditions: Human betaherpesvirus 5, read-out: IC50 (ug/ml) HCMV
Excerpt: Microtiter plate assay. Ninety-six well plate cultures of human foreskin fibroblasts are infected in the presence of inhibitor compound with a HCMV recombinant mutant virus whose genome contains the prokaryotic beta-glucuronidase gene (Jefferson, R. A., S. M. Burgess, and D. Hirsh. 1986. Beta-glucuronidase from Escherichia coli as a gene fusion marker. Proc. Natl. Acad. Sci. USA 83:8447-8451) whose expression is controlled by a viral promoter. An example of such a virus is RV145 (Jones, T. R., V. P. Muzithras, and Y. Gluzman. 1991. Replacement mutagenesis of the human cytomegalovirus genome: US10 and US11 gene products are nonessential. J. Virol. 65:5860-5872). Since it is under the control of a viral promoter, beta-glucuronidase expression is an indirect indicator of growth and replication of HCMV in this assay. At 96 hours post-infection, the infected cell lysates are prepared (using 50mM sodium phosphate [pH7.0] containing 0.1 % Triton X-100 and 0.1% sarkosyl) and assayed for beta-glucuronidase activity using a substrate for the enzyme which when cleaved yields either a product which can be measured colorimetrically in a spectrophotometer or fluorescently in a microfluorimeter. Examples of such substrates are p-nitrophenyl-beta-D-glucuronide and methylumbelliferylglucuronide, respectively. The presence of an antiviral compound is indicated by the reduced expression of the HCMV genome resident beta-glucuronidase gene, compared to the absence of inhibitor. […] Data from this assay generated using varying amounts of inhibitor compound is also used to estimate the IC50 of an inhibitor compound.

[2] = Human alphaherpesvirus 1, HSV-1 in Vero cells
[3] = Human alphaherpesvirus 3, VZV strain Ellen in HFF cells

| SMILES | IC50 (HSV-1; [2]) | inhibition at 10 µg/mL (VZV strain Ellen) | IC50 (VZV strain Ellen; [3]) | IC50 [1] | IC50 (HSV-1; Human alphaherpesvirus 1, Vero) | IC50 (VZV strain Ellen; Human alphaherpesvirus 3, HFF) |
| --- | --- | --- | --- | --- | --- | --- |
| COc1cc(OC)c(NC(=S)Nc2ccc(NC(=O)c3ccccc3F)cc2C(F)(F)F)cc1Cl [Example 359, N-{4-[3-(5-Chloro-2,4-dimethoxy-phenyl)-thioureido]-3-trifluoromethyl-phenyl}-2-fluoro-benzamide] | 0.6 µg/mL (≈ 1.14 µM) | 59% | > 10 µg/mL | > 10 µg/mL | – | – |
| Cc1cc(NC(=S)NC(C)c2ccc(C#N)cc2)ccc1NC(=O)c1ccccc1F (stereo not drawn) [Example 1047, N-(4-{3-[1-(4-Cyano-phenyl)-ethyl]-thioureido}-2-methyl-phenyl)-2-fluoro-benzamide] | – | – | – | 6.1 µg/mL (≈ 14.1 µM) | > 10 µg/mL | 0.63 µg/mL (≈ 1.46 µM) |
| CC(NC(=S)Nc1ccc(NC(=O)c2cc3ccccc3o2)c(C#N)c1)c1ccc(F)cc1 (stereo not drawn) [Example 1070, Benzofuran-2-carboxylic acid (2-cyano-4-{3-[1-(4-fluoro-phenyl)-ethyl]-thioureido}-phenyl)-amide] | 4.1 µg/mL (≈ 8.94 µM) | – | 0.2 µg/mL (≈ 0.436 µM) | 2 µg/mL (≈ 4.36 µM) | – | – |
| COc1cc(OC)c(NC(=S)Nc2cc(C)c(NC(=O)c3ccccc3F)cc2Cl)cc1Cl [Example 327, N-{5-Chloro-4-[3-(5-chloro-2,4-dimethoxy-phenyl)-thioureido]-2-methyl-phenyl}-2-fluoro-benzamide] | > 10 µg/mL | 42% | > 10 µg/mL | > 10 µg/mL | – | – |
| COc1cc(OC)c(NC(=S)Nc2ccc(NC(=O)c3ccccc3F)cc2C)cc1Cl [Example 295, N-{4-[3-(5-Chloro-2,4-dimethoxy-phenyl)-thioureido]-3-methyl-phenyl}-2-fluoro-benzamide] | 0.15 µg/mL (≈ 0.316 µM) | 20% | > 10 µg/mL | > 10 µg/mL | – | – |
| Cc1cc(NC(=S)NC(C)c2ccc(Br)cc2)ccc1NC(=O)c1ccccc1F (stereo not drawn) [Example 1046, N-(4-{3-[1-(4-Bromo-phenyl)-ethyl]-thioureido}-2-methyl-phenyl)-2-fluoro-benzamide] | 6.3 µg/mL (≈ 13 µM) | – | 0.057 µg/mL (≈ 0.117 µM) | 2.8 µg/mL (≈ 5.76 µM) | – | – |
| CC(NC(=S)Nc1ccc(NC(=O)c2ccccc2F)c(OCc2ccccc2)c1)c1ccc(C#N)cc1 (stereo not drawn) [Example 1050, N-(2-Benzyloxy-4-{3-[1-(4-cyano-phenyl)-ethyl]-thioureido}-phenyl)-2-fluoro-benzamide] | > 10 µg/mL | – | > 7.5 µg/mL | > 10 µg/mL | – | – |
| COc1cc(NC(=S)NC(C)c2ccc(F)cc2)c(C)cc1NC(=O)c1ccccc1F (stereo not drawn) [Example 1031, 2-Fluoro-N-(4-{3-[1-(4-fluoro-phenyl)-ethyl]-thioureido}-2-methoxy-5-methyl-phenyl)-benzamide] | > 10 µg/mL | – | 0.7 µg/mL (≈ 1.54 µM) | > 10 µg/mL | – | – |
| Cc1cc(NC(=S)NC(C)c2ccc(F)cc2)ccc1NC(=O)c1ccccc1F (stereo not drawn) [Example 1045, 2-Fluoro-N-(4-{3-[1-(4-fluoro-phenyl)-ethyl]-thioureido}-2-methyl-phenyl)-benzamide] | 6.2 µg/mL (≈ 14.6 µM) | – | 0.05 µg/mL (≈ 0.118 µM) | 1.5 µg/mL (≈ 3.53 µM) | – | – |
| CC(NC(=S)Nc1ccc(NC(=O)c2nccc3ccccc23)c(C(F)(F)F)c1)c1ccc(F)cc1 (stereo not drawn) [Example 1066, Isoquinoline-1-carboxylic acid (4-{3-[1-(4-fluoro-phenyl)-ethyl]-thioureido}-2-trifluoromethyl-phenyl)-amide] | 1.9 µg/mL (≈ 3.71 µM) | – | 0.02 µg/mL (≈ 0.039 µM) | 1.8 µg/mL (≈ 3.51 µM) | – | – |
| Cc1cc(NC(=S)NC(C)c2cc3ccccc3o2)ccc1NC(=O)c1ccccc1F (stereo not drawn) [Example 1048, N-{4-[3-(1-Benzofuran-2-yl-ethyl)-thioureido]-2-methyl-phenyl}-2-fluoro-benzamide] | > 10 µg/mL | – | 0.061 µg/mL (≈ 0.136 µM) | 3.4 µg/mL (≈ 7.6 µM) | – | – |
| COc1cc(NC(=S)NC(C)c2ccc(F)cc2)c(OC)cc1NC(=O)c1ccccc1F (stereo not drawn) [Example 1025, 2-Fluoro-N-(4-{3-[1-(4-fluoro-phenyl)-ethyl]-thioureido}-2,5-dimethoxy-phenyl)-benzamide] | > 10 µg/mL | – | > 10 µg/mL | > 10 µg/mL | – | – |

Reference: patent EP1137632B1, “THIOUREA INHIBITORS OF HERPES VIRUSES” (Wyeth, priority 1998, dated 2000)
